Assays:
[1] = Determination of pharmacokinetic parameters after intravenous administration in rats; assay type: in vivo, rat; settings: intravenous administration of 0.3 mg/kg; for MRT / half-life: male, Wistar, rat, plasma; for MRT: read-out: mean residence time; for half-life: read-out: terminal half-life (converted)
Protocol: B-4. Determination of Pharmacokinetic Parameters after Intravenous and Oral Administration
The pharmacokinetic parameters of the compounds of the formula (I) according to the invention are determined in male CD-1 mice, male Wistar rats and/or female beagles. The administration volume is 5 ml/kg for mice, 5 ml/kg for rats and 0.5 ml/kg for dogs. Intravenous administration is via a formulation of species-specific plasma/DMSO (99/1) in the case of mice and rats and via water/PEG400/ethanol (50/40/10 or 30/60/10) in the case of dogs. For easier removal of blood, a silicone catheter is inserted into the right Vena jugularis externa of the rats before the administration of substance. The surgical intervention takes place one day prior to the experiment with isofluran anaesthesia and administration of an analgetic (atropine/rimadyl (3/1) 0.1 ml s.c.). Substance administration is as i.v. bolus in the case of mice and rats and via a 15-minute infusion in the case of dogs. Removal of blood is after 0.033, 0.083, 0.17, 0.5, 1, 2, 3, 4, 6, 7 and 24 hours in the case of rats, after 0.033, 0.083, 0.17, 0.5, 1, 2, 3, 4, 6, 7, 24, 48 and 72 hours in the case of mice and after 0.083, 0.25, 0.28 0.33, 0.42, 0.75, 1, 2, 3, 4, 6, 7 and 24 hours in the case of dogs. For all species, oral administration of the dissolved substance via gavage is carried out based on a water/PEG400/ethanol formulation (50/40/10). Here, the removal of blood from rats is after 0.083, 0.17, 0.5, 0.75, 1, 2, 3, 4, 6, 7 and 24 hours and from dogs after 0.083, 0.17, 0.5, 0.75, 1, 2, 3, 4, 6, 7, 24, 30 and 48 hours. The blood is removed into heparinized tubes. The blood plasma is then obtained by centrifugation; if required, it can be stored at −20° C. until further processing.
An internal standard (ZK 228859) is added to the samples of the compounds of the formula (I) according to the invention, calibration samples and QCs, and the protein is precipitated using excess acetonitrile. After addition of an ammonium acetate buffer (0.01 M, pH 6.8) and subsequent vortexing, the mixture is centrifuged at 1000 g and the supernatant is examined by LC-MS/MS (API 4000, AB Sciex). Chromatographic separation is carried out on an Agilent 1100-HPLC. The injection volume is 10 μl. The separation column used is a Phenomenex Luna 5μ C8(2) 100 A 50×2 mm, adjusted to a temperature of 40° C. A binary mobile phase gradient at 500 μl/min is used (A: 0.01 M ammonium acetate buffer pH 6.8, B: 0.1% formic acid in acetonitrile): 0 min (90% A), 1 min (90% A), 3 min (15% A), 4 min (15% A), 4.50 min (90% A), 6 min (90% A). The temperature of the Turbo V ion source is 500° C. The following MS instrument parameters are used: curtain gas 15 units, ion spray voltage 4.8 kV, gas 1 45 units, gas 2 35 units, CAD gas 40 units. The substances are quantified by peak heights or areas using extracted ion chromatograms of specific MRM experiments.
The pharmacokinetic parameters such as AUC, Cmax, t1/2 (terminal half-life), MRT (mean residence time) and CL (clearance) are calculated by means of the validated pharmacokinetics calculation program KinEx (Vers. 2.5 and 3) from the plasma concentration-time curves obtained.
As substance quantification takes place in plasma, the blood/plasma distribution of the substance must be determined for appropriate adjustment of the pharmacokinetic parameters. For this, a defined amount of the substance in heparinized whole blood of the corresponding species is incubated for 20 min in the tumbling roller mixer. After centrifugation at 1000 g, the plasma concentration is measured (see above) and the Cblood/Cplasma value is determined by finding the quotient.
Following intravenous administration of 0.3 mg/kg of Example 1, 18, 19 and 27 in rats, the following values were recorded: […]

[2] = target: T1, recombinant guanylate cyclase reporter cell line (Rattus norvegicus, UniProt P19686+P20595); test: Action on recombinant guanylate cyclase reporter cell line; assay type: cell-based
T1 construct: expressed in transfected cells
T1 sequence (P20595 1-619): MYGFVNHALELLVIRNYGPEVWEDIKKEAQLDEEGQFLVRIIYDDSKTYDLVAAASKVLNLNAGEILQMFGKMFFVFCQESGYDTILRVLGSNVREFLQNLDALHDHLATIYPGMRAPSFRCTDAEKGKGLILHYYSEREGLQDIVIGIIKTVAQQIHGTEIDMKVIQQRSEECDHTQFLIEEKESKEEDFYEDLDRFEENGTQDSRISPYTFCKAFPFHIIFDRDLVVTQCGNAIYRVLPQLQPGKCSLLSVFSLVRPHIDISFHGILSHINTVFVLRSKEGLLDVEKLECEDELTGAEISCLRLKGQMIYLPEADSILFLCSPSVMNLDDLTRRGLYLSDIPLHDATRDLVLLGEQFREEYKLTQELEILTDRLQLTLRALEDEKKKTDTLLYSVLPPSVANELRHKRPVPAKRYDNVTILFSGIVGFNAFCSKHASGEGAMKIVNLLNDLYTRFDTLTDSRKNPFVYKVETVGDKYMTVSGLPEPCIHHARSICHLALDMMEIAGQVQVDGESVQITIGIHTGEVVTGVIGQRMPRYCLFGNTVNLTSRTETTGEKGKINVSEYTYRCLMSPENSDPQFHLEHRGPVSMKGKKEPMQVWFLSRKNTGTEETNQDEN
T1 sequence (P19686 1-690): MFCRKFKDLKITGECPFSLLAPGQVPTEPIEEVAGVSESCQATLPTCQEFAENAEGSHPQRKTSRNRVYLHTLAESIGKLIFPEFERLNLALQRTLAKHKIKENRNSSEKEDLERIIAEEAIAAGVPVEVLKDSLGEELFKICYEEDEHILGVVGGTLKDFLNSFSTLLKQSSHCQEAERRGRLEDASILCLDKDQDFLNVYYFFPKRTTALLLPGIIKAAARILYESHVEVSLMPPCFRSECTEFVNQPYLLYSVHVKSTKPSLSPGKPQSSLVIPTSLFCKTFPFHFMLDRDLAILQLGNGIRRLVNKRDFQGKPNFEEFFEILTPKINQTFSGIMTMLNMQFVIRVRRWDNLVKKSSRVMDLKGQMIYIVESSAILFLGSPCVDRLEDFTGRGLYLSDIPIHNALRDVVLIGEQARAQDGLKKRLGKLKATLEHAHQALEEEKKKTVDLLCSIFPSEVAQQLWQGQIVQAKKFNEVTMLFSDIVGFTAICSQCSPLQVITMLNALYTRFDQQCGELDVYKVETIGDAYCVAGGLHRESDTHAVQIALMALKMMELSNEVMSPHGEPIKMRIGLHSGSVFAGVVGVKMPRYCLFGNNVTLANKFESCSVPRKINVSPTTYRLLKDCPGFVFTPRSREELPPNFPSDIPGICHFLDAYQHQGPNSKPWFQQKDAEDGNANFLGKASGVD
Protocol: B-2. Action on Recombinant Guanylate Cyclase Reporter Cell Line
The cellular action of the compounds according to the invention is determined on a recombinant guanylate cyclase reporter cell line, as described in F. Wunder et al., Anal. Biochem. 339, 104-112 (2005).

aorta = test: Vessel-relaxing action in vitro (phenylephrine-contracted aorta rings); settings: Oryctolagus cuniculus; rabbit aorta rings, phenylephrine contraction; concentration reducing control contraction by 50%
Protocol: B-1. Vessel-Relaxing Action In Vitro
Rabbits are stunned with a blow on the back of the neck and exsanguinated. The aorta is removed, freed from adhering tissue, separated into rings with a width of 1.5 mm, and placed individually, with preloading, in 5-ml organ baths with carbogen-gassed Krebs-Henseleit solution at 37° C. with the following composition (mM in each case): sodium chloride: 119; potassium chloride: 4.8; calcium chloride dihydrate: 1; magnesium sulphate heptahydrate: 1.4; potassium dihydrogen phosphate: 1.2; sodium hydrogen carbonate: 25; glucose: 10. The contraction force is recorded with Statham UC2 cells, amplified and digitized via an A/D converter (DAS-1802 HC, Keithley Instruments Munich) and recorded in parallel on a continuous-line recorder. To produce contraction, phenylephrine is added to the bath cumulatively in increasing concentration. After several control cycles, the test substance is added in increasing dosage in each subsequent pass and the level of contraction is compared with the level of contraction reached in the immediately preceding pass. This is used for calculating the concentration that is required to reduce the level of the control value by 50% (IC50 value). The standard application volume is 5 μl, and the proportion of DMSO in the bath solution corresponds to 0.1%.

CC1(C)C(=O)Nc2nc(-c3nn(Cc4ccccc4F)c4ncccc34)ncc21 [Example 1, 2-[1-(2-Fluorobenzyl)-1H-pyrazolo[3,4-b]pyridin-3-yl]-5,5-dimethyl-5,7-dihydro-6H-pyrrolo[2,3-d]pyrimidin-6-one]
CLblood [1]: 18.3 mL/min/kg
MRT [1]: 1.2 h
half-life [1]: 0.9 h
MEC (minimal effective concentration) [2]: 0.01 µM
IC50 (aorta): 12 nM

O=C1Nc2nc(-c3nn(Cc4ccccc4F)c4ncccc34)ncc2C1(O)C(F)(F)F (stereo not drawn) [Example 18, 2-[1-(2-Fluorobenzyl)-1H-pyrazolo[3,4-b]pyridin-3-yl]-5-hydroxy-5-(trifluoromethyl)-5,7-dihydro-6H-pyrrolo[2,3-d]pyrimidin-6-one]
CLblood [1]: 7.67 mL/min/kg
MRT [1]: 1.9 h
half-life [1]: 1.4 h
MEC (minimal effective concentration) [2]: 0.03 µM
IC50 (aorta): 93 nM

CC1(C)C(=O)Nc2nc(-c3nn(Cc4cccc(F)c4F)c4ncc(F)cc34)nnc21 [Example 20, 3-[1-(2,3-Difluorobenzyl)-5-fluoro-1H-pyrazolo[3,4-b]pyridin-3-yl]-7,7-dimethyl-5,7-dihydro-6H-pyrrolo[2,3-e][1,2,4]triazin-6-one]
MEC (minimal effective concentration) [2]: 0.03 µM
IC50 (aorta): 45 nM

CC1(F)C(=O)Nc2nc(-c3nn(Cc4ccccc4F)c4ncccc34)ncc21 (stereo not drawn) [Example 23, 5-Fluoro-2-[1-(2-fluorobenzyl)-1H-pyrazolo[3,4-b]pyridin-3-yl]-5-methyl-5,7-dihydro-6H-pyrrolo[2,3-d]pyrimidin-6-one]
MEC (minimal effective concentration) [2]: 0.03 µM
IC50 (aorta): 15 nM

CC(C)(C)OC(=O)CC1(O)C(=O)Nc2nc(-c3nn(Cc4ccccc4F)c4ncccc34)ncc21 (stereo not drawn) [Example 24, tert-Butyl {2-[1-(2-fluorobenzyl)-1H-pyrazolo[3,4-b]pyridin-3-yl]-5-hydroxy-6-oxo-6,7-dihydro-5H-pyrrolo[2,3-d]pyrimidin-5-yl}acetate]
MEC (minimal effective concentration) [2]: 0.3 µM
IC50 (aorta): 269 nM

COC(=O)NC1C(=O)Nc2nc(-c3nn(Cc4ccccc4F)c4ncccc34)ncc21 (stereo not drawn) [Example 26, Methyl {2-[1-(2-fluorobenzyl)-1H-pyrazolo[3,4-b]pyridin-3-yl]-6-oxo-6,7-dihydro-5H-pyrrolo[2,3-d]pyrimidin-5-yl}carbamate]
MEC (minimal effective concentration) [2]: 0.3 µM
IC50 (aorta): 840 nM

CC1(C)C(=O)Nc2nc(-c3nn(Cc4cccc(F)c4F)c4ncccc34)nnc21 [Example 27, 3-[1-(2,3-Difluorobenzyl)-1H-pyrazolo[3,4-b]pyridin-3-yl]-7,7-dimethyl-5,7-dihydro-6H-pyrrolo[2,3-e][1,2,4]triazin-6-one]
CLblood [1]: 5.83 mL/min/kg
MRT [1]: 7.3 h
half-life [1]: 5.6 h
MEC (minimal effective concentration) [2]: 0.03 µM
IC50 (aorta): 54 nM

CC1(C)C(=O)Nc2nc(-c3nn(Cc4ccc(F)cc4F)c4ncccc34)nnc21 [Example 28, 3-[1-(2,4-Difluorobenzyl)-1H-pyrazolo[3,4-b]pyridin-3-yl]-7,7-dimethyl-5,7-dihydro-6H-pyrrolo[2,3-e][1,2,4]triazin-6-one]
MEC (minimal effective concentration) [2]: 0.3 µM
IC50 (aorta): 103 nM

O=C1Nc2nc(-c3nn(Cc4ccccc4F)c4ncc(F)cc34)ncc2C12CC2 [Example 30, 2′-[5-Fluoro-1-(2-fluorobenzyl)-1H-pyrazolo[3,4-b]pyridin-3-yl]spiro[cyclopropane-1,5′-pyrrolo[2,3-d]pyrimidin]-6′(7′H)-one]
MEC (minimal effective concentration) [2]: 0.03 µM
IC50 (aorta): 97 nM

Reference: US9216978B2, “Ring-fused pyrimidines and triazines and use thereof for the treatment and/or prophylaxis of cardiovascular diseases” (BAYER INTELLECTUAL PROPERTY GMBH, priority 2010, dated 2015)
